According to US20260378560A1, “APPROACHES TO DESIGNING AND PERFORMING COMPRESSED BIOLOGICAL EXPERIMENTS AND SYSTEMS FOR IMPLEMENTING THE SAME” (EXVIVO LABS INC., priority 2023, published 2026):

What was measured:
REH [1] = assay: Cell viability (CellTiter Glo), library of cancer drugs, individual or sample compression with randomized (alphabetical) pools, REH; assay type: cell-based; details: REH; for DRS: None (measured individually); for DRS from deconvolution: Samples, 7 Pick 3 randomized (alphabetical) sample pools
In short: (§1)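 Cells cultured with each drug individually at 1 nM–10 μM; viability by ATP luminescence (CellTiter Glo) to build dose-response curves and DRS. Samples read singly or pooled alphabetically (each drug in 3 of 7 pools), with pooled DRS recovered by additivity-based SUM deconvolution.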

REH [2] = assay: Cell viability (CellTiter Glo), compressed perturbation pools with informed pool design, SUM-based deconvolution, REH; set-up: scale not given here
Method: (§2) Total cell viability was measured for each sample using an ATP-based luminescence assay (i.e., CellTiter Glo). Each cancer drug was then screened at multiple concentrations ranging from one nM to ten μM in order to generate a dose-response curve and calculate a DRS for each cancer cell line.
(§3) Each cancer drug was cultured with target cells individually. At the end of the screen, samples were either analyzed individually or compressed into pools for analysis. The library was compressed alphabetically into ten cohorts, each of which contained seven cancer drugs present in three out of the seven pools, as shown in Table VII. Said another way, the screening platform 210 generated a “7 pick 3” compressed library by assigning the cancer drugs among different pools. […] The library was also compressed into ten cohorts with pools designed based on information known about each cancer drug, as shown in Table VIII. After cell viability measurement and DRS calculation, the DRS of each cancer drug in the samples generated based on the pools were deconvoluted and compared to the DRS for each cancer drug measured individually.
(§4) In parallel to the exemplary sample compression screen covered in Table VII, perturbations were compressed into pools and then screened. The pools were designed using drug class as a feature with two compression rules (or simply “rules”). The first rule required that drugs from the same class be separated into different cohorts (i.e., mutually exclusive groups of pools). The second rule separated PI3K pathway inhibitors from MAPK pathway inhibitors, as inhibiting these pathways in parallel is known to be synergistic but has not been clinically effective due to dose-limiting toxicities. A benefit of compressing perturbations is the ability to measure additive, antagonistic, and synergistic effects between drugs in the same pool. However, these effects can negatively impact deconvolution of individual drug effects. Therefore, combinations of drugs for which evidence of clinical toxicity exists can be assigned to different pools in accordance with an informed pooling operation. As new preclinical or clinical evidence of toxic combinations becomes available, the rules implemented by the screening platform 210—and more specifically, its algorithm for compressing members of a library—can be updated accordingly.
(§5) In SUM-based deconvolution, an assumption of additivity is used to quantify the individual effects of each perturbation on each target. Additivity implies that each perturbation effect on each target is positively contributing to the overall effect measured for that pool. This is an accurate assumption for certain experiments, such as when targets or samples are compressed. When targets are pooled—or when samples containing different targets are pooled—the effect of each perturbation on each individual target is diluted. In other words, each perturbation has an isolated effect on a target in culture, and the sum total of the isolated effects are measured when pooled. Therefore, SUM-based deconvolution breaks down the sum total measured for a pool and assigns estimated fractional effects to each compressed perturbation or target in the pool. The screening platform 210 used SUM-based deconvolution for all target and sample compression experiments described above.
(§6) As mentioned above, SUM-based deconvolution uses the overlapping pool design to identify relative relationships and ranges for the individual effects of each perturbation. When the overlapping pool design is not sufficient to solve for the polynomials representing perturbation effects, an anchor perturbation can be identified by the screening platform 210 based on rank order and assigned an effect size of zero. The anchor perturbation may be the lowest ranked perturbation in the rank order. This then enables the screening platform 210 to solve for the polynomials for the remaining perturbations.

MOLT-4 [3] = assay: Cell viability (CellTiter Glo), compressed perturbation pools with informed pool design, MAX-based deconvolution, MOLT-4; details: for DRS: MOLT-4, None (measured individually), informed pool design table; for DRS from MAX-based deconvolution: MOLT-4, Samples, 7 Pick 3 informed perturbation pools; for DRS, MOLT-4, MAX: compressed perturbation pools, informed pool design, MAX-based deconvolution;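 on DRS from MAX-based deconvolution: higher DRS means a larger drug effect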
In short: (§7)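 Per-drug DRS recovered by MAX deconvolution, which assumes the strongest pool member masks the rest; after ranking, each drug in turn takes the DRS of the lowest-signal pool containing it, and leftovers score zero. Pools built from drug class and known toxic combinations; dose-response spans 1 nM to 10 μM, read by ATP-based luminescence.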

REH [4] = assay: Cell viability (CellTiter Glo), compressed perturbation pools with informed pool design, MAX-based deconvolution, REH; details: for DRS: None (measured individually), informed pool design table; for DRS from MAX-based deconvolution: Samples, 7 Pick 3 informed perturbation pools; for DRS, REH, MAX: compressed perturbation pools, informed pool design, MAX-based deconvolution;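 on DRS from MAX-based deconvolution: higher DRS means a larger drug effect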
In short: as §7

MOLT-4 [5] = assay: Cell viability (CellTiter Glo), compressed perturbation pools with informed pool design, SUM-based deconvolution, MOLT-4; set-up: scale not given here
Method: as §2, §3, §4, §5, §6

MOLT-4 [6] = assay: Cell viability (CellTiter Glo), library of cancer drugs, individual or sample compression with randomized (alphabetical) pools, MOLT-4; assay type: cell-based; details: for DRS: MOLT-4, None (measured individually); for DRS from deconvolution: MOLT-4, Samples, 7 Pick 3 randomized (alphabetical) sample pools
In short: as §1

Compound	DRS (REH [1])	DRS from deconvolution (REH [1])	DRS, REH, SUM (REH [2])	DRS (MOLT-4 [3])	DRS from MAX-based deconvolution (MOLT-4 [3])	DRS, MOLT-4, MAX (MOLT-4 [3])	DRS (REH [4]; REH)	DRS from MAX-based deconvolution (REH [4]; REH)	DRS, REH, MAX (REH [4]; REH)	DRS, MOLT-4, SUM (MOLT-4 [5])	DRS (MOLT-4 [6])	DRS from deconvolution (MOLT-4 [6])	top hit of cohort (deconvoluted effect size) (MOLT-4 [3]; MOLT, informed perturbation pools)	top hit of cohort (deconvoluted effect size) (REH [4]; REH, informed perturbation pools)	effect on REH relative to MOLT cell line (REH [4]; REH relative to MOLT)
CCN1CCN(Cc2ccc(Nc3ncc(F)c(-c4cc(F)c5nc(C)n(C(C)C)c5c4)n3)nc2)CC1 [Abemaciclib]	2.40	2.57	2.69	15.70	17.03	0.00	13.34	15.14	0.00	1.08	0.50	0.55			
Cc1nc(NC(=O)N2CCC[C@H]2C(N)=O)sc1-c1ccnc(C(C)(C)C(F)(F)F)c1 [Alpelisib]	0.79	0.75	1.12	0.01	0.00	0.00	0.21	0.35	3.57	0.00	1.79	1.94			
CNC(=O)c1ccc(N2C(=S)N(c3cnc(C#N)c(C(F)(F)F)c3)C(=O)C23CCC3)cc1F [Apalutamide]	0.38	0.35	0.73	0.00	0.00	4.94	0.00	0.00	0.73	1.88	0.38	0.33			
O=C(/C=C/c1cccc(S(=O)(=O)Nc2ccccc2)c1)NO [Belinostat]	16.20	15.81	18.09	13.42	15.55	21.41	12.12	14.23	18.94	14.77	18.70	12.21			
CC(C)C[C@H](NC(=O)[C@H](Cc1ccccc1)NC(=O)c1cnccn1)B(O)O [Bortezomib]	27.70	28.16	22.86	2.50	2.76	28.24	2.40	2.90	31.61	23.95	25.00	25.41	top hit	top hit	
C[C@@H](Oc1cc(-c2cnn(C3CCNCC3)c2)cnc1N)c1c(Cl)ccc(F)c1Cl [Crizotinib]	0.23	015	0.00	0.27	0.27	0.00	0.27	0.00	0.00	3.06	0.23	0.28			
COc1cc2ncnc(Nc3ccc(F)c(Cl)c3)c2cc1NC(=O)/C=C/CN1CCCCC1 [Dacomitinib]	3.10	3.15	1.33	0.00	0.00	0.00	0.00	0.00	0.00	0.99	2.60	2.53			
COc1cc(OC)cc(N(CCNC(C)C)c2ccc3ncc(-c4cnn(C)c4)nc3c2)c1 [Erdafitinib]	4.37	4.03	0.00	0.38	4.94	3.88	0.38	0.73	0.00	1.38	3.37	3.41			
C#Cc1cccc(Nc2ncnc3cc(OCCOC)c(OCCOC)cc23)c1 [Erlotinib]	1.84	1.59	1.67	0.68	5.39	0.00	5.88	7.06	0.00	1.55	1.04	0.96			
CO[C@H]1C[C@@H]2CC[C@@H](C)[C@@](O)(O2)C(=O)C(=O)N2CCCC[C@H]2C(=O)O[C@H]([C@H](C)C[C@@H]2CC[C@@H](OCCO)[C@H](OC)C2)CC(=O)[C@H](C)/C=C(\C)[C@@H](O)[C@@H](OC)C(=O)[C@H](C)C[C@H](C)/C=C/C=C/C=C/1C [Everolimus]	7.39	7.70	9.02	0.23	0.00	2.51	0.23	0.00	9.02	1.42	2.19	2.35			much larger effects on the REH cell line
CC[C@H](Nc1ncnc2[nH]cnc12)c1nc2cccc(F)c2c(=O)n1-c1ccccc1 [Idelalisib]	0.91	0.85	0.00	0.00	0.00	0.00	0.30	0.74	0.00	0.54	0.80	0.69			
Cc1ccc(NC(=O)c2ccc(CN3CCN(C)CC3)cc2)cc1Nc1nccc(-c2cccnc2)n1 [Imatinib]	1.78	1.90	1.81	13.99	15.14	0.00	15.29	18.48	0.00	1.34	0.88	0.89			
COc1cc2nccc(Oc3ccc(NC(=O)NC4CC4)c(Cl)c3)c2cc1C(N)=O [Lenvatinib]	0.14	0.00	0.00	0.00	0.00	0.00	0.00	0.00	0.00	0.89	0.74	0.77			
